# Like-named read-outs stand apart in the source and are kept apart here.
# Experiments:
# [1] = system: Staph.aureus A 2000; assay: micro serial dilution test; format: cell-based, Staphylococcus aureus; conditions: Staphylococcus aureus, A2000, 18 h, micro serial dilution (in brackets), about 18 hours, 30° C. or 37° C.; read-out: minimal inhibitory concentration (MIC)
# [2] = system: Strep. faec. L 80; assay: agar serial dilution test; format: cell-based, Streptococcus faecalis; conditions: Enterococcus faecalis; agar serial dilution, 24 hours, 37° C.; read-out: minimal inhibitory concentration (MIC)
# [3] = system: Shig.equir. T 3; assay: agar serial dilution test; format: cell-based; conditions: 24 h, 37° C., read-out: minimal inhibitory concentration (MIC)
# [4] = system: Prot.mirab. A 1200; assay: agar serial dilution test; format: cell-based, Proteus mirabilis; conditions: Proteus mirabilis, 24 h, agar serial dilution, 24 hours, 37° C.; read-out: minimal inhibitory concentration (MIC)
# [5] = system: Dipl.pneum. L 54; assay: agar serial dilution test; format: cell-based, Diplococcus pneumoniae; conditions: Streptococcus pneumoniae; agar serial dilution, 24 hours, 37° C.; read-out: minimal inhibitory concentration (MIC)
# [6] = system: Bac.Subt.ATCC 6633; assay: agar serial dilution test; format: cell-based, Bacillus subtilis; conditions: Bacillus subtilis, ATCC6633, 24 h, agar serial dilution, 24 hours, 37° C.; read-out: minimal inhibitory concentration (MIC)
# [7] = system: Staph.aureus A 355; assay: micro serial dilution test; format: cell-based, Staphylococcus aureus; conditions: Staphylococcus aureus, A355; micro serial dilution (in brackets), about 18 hours, 30° C. or 37° C.; penicillinase-producing strain; read-out: minimal inhibitory concentration (MIC)
# [8] = system: Pseud.aerug. 2396; assay: agar serial dilution test; format: cell-based; conditions: agar serial dilution, 24 hours, 37° C.; read-out: minimal inhibitory concentration (MIC)
# [9] = system: Staph.aureus A 355; assay: agar serial dilution test; conditions: Staphylococcus aureus, A355, 24 h, read-out: minimal inhibitory concentration (MIC), agar serial dilution, 24 hours, 37° C.; penicillinase-producing strain
# [10] = system: Esch.coli U 20; assay: agar serial dilution test; format: cell-based, Escherichia coli; conditions: Escherichia coli
# [11] = system: Staph.aureus A 2001; assay: micro serial dilution test; format: cell-based, Staphylococcus aureus; conditions: Staphylococcus aureus, A2001, 18 h, micro serial dilution (in brackets), about 18 hours, 30° C. or 37° C.; read-out: minimal inhibitory concentration (MIC)
# [12] = system: Salm.typh. R 127; assay: agar serial dilution test; format: cell-based; conditions: 24 h, 37° C., read-out: minimal inhibitory concentration (MIC)
# [13] = system: Staph.aureus A 2001; assay: agar serial dilution test; format: cell-based, Staphylococcus aureus; conditions: Staphylococcus aureus, A2001, 24 h, read-out: minimal inhibitory concentration (MIC)
# [14] = system: Prot.rettg. A 821; assay: agar serial dilution test; format: cell-based, Proteus rettgeri; conditions: Providencia rettgeri, 24 h, read-out: minimal inhibitory concentration (MIC)
# [15] = system: Staph.aureus A 2000; assay: agar serial dilution test; format: cell-based, Staphylococcus aureus; conditions: Staphylococcus aureus, A2000, 24 h, agar serial dilution, 24 hours, 37° C.; read-out: minimal inhibitory concentration (MIC)
# [16] = system: Kleb.pneum. A 809; assay: agar serial dilution test; format: cell-based, Klebsiella pneumoniae; conditions: Klebsiella pneumoniae; agar serial dilution, 24 hours, 37° C.; read-out: minimal inhibitory concentration (MIC)
# [17] = system: Prot.mirab. H 3; assay: agar serial dilution test; format: cell-based, Proteus mirabilis; conditions: Proteus mirabilis; agar serial dilution, 24 hours, 37° C.; read-out: minimal inhibitory concentration (MIC)
# [18] = system: Haem.infl. A 1030; assay: micro serial dilution test; format: cell-based; conditions: 18 h, micro serial dilution (in brackets), about 18 hours, 30° C. or 37° C.; read-out: minimal inhibitory concentration (MIC)
# [19] = system: Prot.mirab. L 93; assay: agar serial dilution test; format: cell-based, Proteus mirabilis; conditions: Proteus mirabilis; agar serial dilution, 24 hours, 37° C.; read-out: minimal inhibitory concentration (MIC)
# [20] = system: Pseud.aerug. H 10; assay: agar serial dilution test; format: cell-based; conditions: agar serial dilution, 24 hours, 37° C.; read-out: minimal inhibitory concentration (MIC)
# [21] = system: Staph.aureus A 321; assay: agar serial dilution test; format: cell-based, Staphylococcus aureus; conditions: Staphylococcus aureus, A321, 24 h, agar serial dilution, 24 hours, 37° C.; read-out: minimal inhibitory concentration (MIC)
# [22] = system: Pseud.aerug. Wyeth A 1058; assay: agar serial dilution test; format: cell-based; conditions: agar serial dilution, 24 hours, 37° C.; read-out: minimal inhibitory concentration (MIC)
# [23] = system: Past.multo. A 723; assay: agar serial dilution test; format: cell-based, Pasteurella multocida; conditions: Pasteurella multocida; agar serial dilution, 24 hours, 37° C.; read-out: minimal inhibitory concentration (MIC)
# [24] = system: Strep.haem. A 266; assay: micro serial dilution test; format: cell-based, Streptococcus haemolyticus; conditions: Streptococcus; micro serial dilution (in brackets), about 18 hours, 30° C. or 37° C.; read-out: minimal inhibitory concentration (MIC)
# [25] = system: Salm.dubl. P 43; assay: agar serial dilution test; format: cell-based, Salmonella dublin; conditions: Salmonella enterica; agar serial dilution, 24 hours, 37° C.; read-out: minimal inhibitory concentration (MIC)
# [26] = system: Prot.morg. 2241; assay: agar serial dilution test; format: cell-based; conditions: 24 h, agar serial dilution, 24 hours, 37° C.; read-out: minimal inhibitory concentration (MIC)
# [27] = blood and urine contents after intramuscular administration in rabbits; format: in vivo, rabbits "Nieuw Zeelander"; conditions: rabbit, im, intramuscular 50 mg/kg
# Experimental: (d) the blood and urine contents of the above-indicated compound G and of monosodium 7-[(3-carboxymethyl-1,2,4-oxadiazol-5-yl)acetamido]-3-acetoxymethyl-3-cephem-4-carboxylate (as prepared in example 35) were determined after intramuscular administration of these compounds in an aqueous solution in rabbits, as listed below:
# test animals: rabbits "Nieuw Zeelander"
# Each testgroup consisted of 3 rabbits.
# Vehiculum: Physiol. saline solution
# Bloodsamples were taken after 1/4--1/2--1--2--4 hours Urinesamples were taken after 1--3--6--24--27 hours (in practice only the secreted amounts after 6 and 24 hours were used).
# Testorganisms: Bacillus subtilis ATCC 6633 and Bacillus callidolactis E 16.
# The contents of the compounds in the samples were determined microbiologically.
# (Only microbiologically detected concentrations, i.e. anti-bacterially active concentrations only have been indicated and determined in relation to the original administered compound).
# [28] = system: Bruc.melit. A 488; assay: microbe, parasite or virus in culture; format: cell-based; conditions: Brucella melitensis, 24 h, read-out: minimal inhibitory concentration (MIC)
# [29] = system: Strep.haem. A 266; assay: agar serial dilution test; format: cell-based, Streptococcus haemolyticus; conditions: Streptococcus; agar serial dilution, 24 hours, 37° C.; read-out: minimal inhibitory concentration (MIC)
# [30] = U20, 24 h, read-out: minimal inhibitory concentration (MIC), agar serial dilution, 24 hours, 37° C.
# [31] = agar serial dilution, 24 hours, 37° C.
# [32] = U20, agar serial dilution, 24 hours, 37° C., read-out: minimal inhibitory concentration (MIC)
Structure (SMILES),MIC [1],MIC [2],MIC [3],MIC [4],MIC [5],MIC [6],MIC [7],MIC [8],MIC [9],MIC [11],MIC [12],MIC [15],MIC [16],MIC [17],MIC [18],MIC [19],MIC [20],MIC [21],MIC [22],MIC [23],further results
"C=CCNC(=O)Cc1nc(CC(=O)N[C@@H]2C(=O)N3C(C(=O)O)=C(COC(C)=O)CS[C@H]23)no1 [Example 31, 7-[5-(N-propen-3-yl)-carbamoylmethyl-1,2,4-oxadiazol-3-yl-acetamido]-cephalosporanic acid]",1.2 µg/mL,25 µg/mL,12.5 µg/mL,25 µg/mL,1.5 µg/mL,1 µg/mL,1.9 µg/mL,> 100 µg/mL,6 µg/mL,1.2 µg/mL,12.5 µg/mL,3 µg/mL,6 µg/mL,25 µg/mL,≥ 125 µg/mL,6 µg/mL,> 100 µg/mL,1.5 µg/mL,> 100 µg/mL,1.5 µg/mL,"MIC [10, 30]: 12.5 µg/mL; MIC [13, 31]: 3 µg/mL; MIC [14]: 12.5 µg/mL; MIC [24]: 2.5 µg/mL; MIC [25]: 6 µg/mL; MIC [26]: > 100 µg/mL"
"CC(=O)OCC1=C(C(=O)O)N2C(=O)[C@@H](NC(=O)Cc3nc(CC(=O)O)no3)[C@H]2SC1 [Example 35, Monosodium 7-[3-carboxymethyl-1,2,4-oxadiazol-5-yl-acetamido]-cephalosporanate]",–,–,–,–,–,–,–,–,–,–,–,–,–,–,–,–,–,–,–,–,"concentration at 0.5 h ([27]; serum, after 1/2 hr, read-out: Serumlevel): 93.7 µg/mL; concentration at 0.25 h ([27]; serum, after 1/4 hr, read-out: Serumlevel): 119 µg/mL; concentration at 1 h ([27]; serum, after 1 hr, read-out: Serumlevel): 56 µg/mL; concentration at 2 h ([27]; serum, after 2 hr, read-out: Serumlevel): 15.4 µg/mL; concentration at 4 h ([27]; serum, after 4 hr, read-out: Serumlevel): 1.8 µg/mL; dose excreted at 6 h ([27]; urine, after 6 hr, read-out: Secretion of compound in urine in % of the administered dose): 35.9%; dose excreted at 24 h ([27]; urine, after 24 hr, read-out: Secretion of compound in urine in % of the administered dose): 51.4%"
"CCc1noc(CC(=O)N[C@@H]2C(=O)N3[C@@H]2SC(C)(C)[C@@H]3C(=O)O)n1 [Example 11G, sodium 6-[(3-ethyl-1,2,4-oxadiazol-5-yl)-acetamido]-penicillanate H2 O]",23 µg/mL,3 µg/mL,10 µg/mL,100 µg/mL,0.25 µg/mL,0.03 µg/mL,30 µg/mL,> 100 µg/mL,3 µg/mL,3.7 µg/mL,25 µg/mL,1.5 µg/mL,> 100 µg/mL,> 100 µg/mL,125 µg/mL,12.5 µg/mL,> 100 µg/mL,0.12 µg/mL,> 100 µg/mL,1 µg/mL,"MIC [28]: 1.5 µg/mL; MIC [10, 32]: 100 µg/mL; MIC [13, 31]: 1 µg/mL; MIC [14, 31]: 3 µg/mL; MIC [24]: 0.5 µg/mL; MIC [25]: 12.5 µg/mL; MIC [26]: > 100 µg/mL"
"Cc1nc(CC(=O)N[C@@H]2C(=O)N3C(C(=O)O)=C(CN=[N+]=[N-])CS[C@H]23)no1 [Example 18, 7-[(5-methyl-1,2,4-oxadiazol-3-yl)-acetamido]-3-azidomethyl-3-cephem-4-carboxylic acid]",1.2 µg/mL,> 100 µg/mL,3 µg/mL,25 µg/mL,3 µg/mL,1 µg/mL,1.2 µg/mL,> 100 µg/mL,1.5 µg/mL,0.9 µg/mL,12.5 µg/mL,1.5 µg/mL,6 µg/mL,25 µg/mL,6 µg/mL,6 µg/mL,> 100 µg/mL,1 µg/mL,> 100 µg/mL,10 µg/mL,"MIC [28]: 6 µg/mL; MIC [10, 30]: 12.5 µg/mL; MIC [29]: 0.25 µg/mL; MIC [13, 31]: 1 µg/mL; MIC [14]: 12.5 µg/mL; MIC [25]: 6 µg/mL; MIC [26]: > 100 µg/mL"
"CC1=C(C(=O)O)N2C(=O)[C@@H](NC(=O)Cc3nc(C)no3)[C@H]2SC1 [Example 11F, 7-[(3-methyl-1,2,4-oxadiazol-5-yl)-acetamido]-desacetoxycephalosporanic acid]",15 µg/mL,> 100 µg/mL,12.5 µg/mL,> 100 µg/mL,50 µg/mL,6 µg/mL,15 µg/mL,> 100 µg/mL,50 µg/mL,8 µg/mL,> 100 µg/mL,50 µg/mL,100 µg/mL,> 100 µg/mL,125 µg/mL,> 100 µg/mL,> 100 µg/mL,6 µg/mL,> 100 µg/mL,100 µg/mL,"MIC [28]: 6 µg/mL; MIC [10, 32]: > 100 µg/mL; MIC [29]: 6 µg/mL; MIC [13]: 12.5 µg/mL; MIC [14, 31]: > 100 µg/mL; MIC [25]: 100 µg/mL; MIC [26]: > 100 µg/mL"
"Cc1nc(CC(=O)N[C@@H]2C(=O)N3C(C(=O)O)=C(CN=[N+]=[N-])C[S+]([O-])[C@H]23)no1 (stereo partly drawn) [Example 19, R-sulfoxide of 7-[(5-methyl-1,2,4-oxadiazol-3-yl)-acetamido]-3-azidomethyl-3-cephem-4-carboxylic acid]",5 µg/mL,> 100 µg/mL,6 µg/mL,> 100 µg/mL,3 µg/mL,0.5 µg/mL,15 µg/mL,> 100 µg/mL,12.5 µg/mL,6 µg/mL,100 µg/mL,6 µg/mL,50 µg/mL,50 µg/mL,23 µg/mL,25 µg/mL,> 100 µg/mL,6 µg/mL,> 100 µg/mL,25 µg/mL,"MIC [28]: 6 µg/mL; MIC [10, 32]: 100 µg/mL; MIC [29]: 0.5 µg/mL; MIC [13, 31]: 6 µg/mL; MIC [14, 31]: 6 µg/mL; MIC [25]: 25 µg/mL; MIC [26]: > 100 µg/mL"

# From patent publication US4160829A, “Antibacterial 1,2,4-oxadiazolylacetamido cephalosporins” (Gist-Brocades N.V., priority 1972, dated 1979)
